Where a name gives a salt, the structure may show the parent alone.
System: coronary vasospasm
Experiment: Treatment of coronary vasospasm after off pump beating coronary artery bypass grafting (angiography, case reports)
Type: in vivo, patient
Description: To a patient who had been subjected to off pump beating coronary artery bypass grafting (in which a left internal thoracic artery was anastomosed to each of a left anterior descending coronary artery and a diagonal branch), during and after the operation, isosorbide dinitrate (2 to 5 mg/hour), diltiazem (1 to 2 mg/hour), nicorandil (4 to 6 mg/hour), and catecholamines (1 to 2 μg/kg per minute of dopamine and 1 to 2 μg/kg per minute of dobutamine) were continuously intravenously administered. However, after three hours of the operation, severe coronary vasospasm occurred. The coronary vasospasm occurred in a right coronary artery which was not related to the bypass operation. Isosorbide dinitrate (total of 10 mg) was administered into the coronary artery, but it had no effect on the vasospasm. Therefore, fasudil hydrochloride was dissolved in a physiological saline and then the mixture was administered into the right coronary artery for 15 minutes at a rate of 1.5 mg/minute. As a result, the coronary vasospasm was resolved (see FIG. 1). At the occurrence of the vasospasm and after the administration of isosorbide dinitrate, the right coronary artery became thin like a thread due to the vasospasm and peripheral part thereof was not illustrated. However, after the administration of fasudil hydrochloride, the peripheral part was illustrated. […] After that, fasudil hydrochloride was dissolved in the physiological saline and the mixture was continuously administered into the vein for 72 hours (tapered from 10 mg/hour).
To a patient who had been subjected to off pump beating coronary artery bypass grafting (in which a saphenous vein graft was anastomosed from an aorta to a left anterior descending coronary artery), during and after the operation, isosorbide dinitrate (1 to 5 mg/hour), diltiazem (1 to 2 mg/hour), and catecholamines (1 to 2 μg/kg per minute of dopamine, dobutamine, and norepinephrine, respectively) were continuously intravenously administered. However, after five hours of the operation, severe coronary vasospasm occurred. The coronary vasospasm occurred in a right coronary artery and a left circumflex coronary artery which were not related to the bypass operation. Isosorbide dinitrate (total of 10 mg) was administered into the right coronary artery, but it had no effect on the vasospasm. Therefore, fasudil hydrochloride was dissolved in a physiological saline and then the mixture was administered into the right coronary artery for 15 minutes at a rate of 1.5 mg/minute As a result, the coronary vasospasm was resolved (see FIG. 1). At the occurrence of the vasospasm and after the administration of isosorbide dinitrate, the distal part thereof from the portion where the vasospasm had occurred was not illustrated. However, after the administration of fasudil hydrochloride, the peripheral part was illustrated. […] After that, fasudil hydrochloride was dissolved in the physiological saline and the mixture was continuously administered into the vein for 72 hours (tapered from 10 mg/hour).
To a patient who had been subjected to off pump beating coronary artery bypass grafting (in which a right internal thoracic artery was anastomosed to a left anterior descending coronary artery and a left internal thoracic artery was anastomosed to a posterolateral branch of a left circumflex coronary artery), during the operation, isosorbide dinitrate (1 to 3 mg/hour), diltiazem (0.5 to 1 mg/hour), nicorandil (2 to 3 mg/hour), and catecholamines (1 to 5 μg/kg per minute of dopamine, 1 to 2 μg/kg per minute of dobutamine, and 1 to 2 μg/min of norepinephrine) were continuously intravenously administered. However, severe coronary vasospasm occurred immediately thereafter. The vasospasm occurred in the right coronary artery which was not related to the bypass operation and the bypass artery grafts (the right internal thoracic artery and the left internal thoracic artery) while the anastomosis region was left open. […]

O=S(=O)(c1cccc2cnccc12)N1CCCNCC1 [fasudil hydrochloride]
recurrence of coronary vasospasm (Example 1 patient, continuous intravenous administration for 72 hours (tapered from 10 mg/hour)): did not occur again | effect on the coronary vasospasm (Example 1 patient, fasudil hydrochloride in physiological saline into the right coronary artery for 15 minutes at 1.5 mg/minute): resolved | recurrence of coronary vasospasm (Example 2 patient, continuous intravenous administration for 72 hours (tapered from 10 mg/hour)): did not occur again | effect on the coronary vasospasm (Example 2 patient, fasudil hydrochloride in physiological saline into the right coronary artery for 15 minutes at 1.5 mg/minute): resolved | recurrence of coronary vasospasm (Example 3 patient, continuous intravenous administration for 48 hours (tapered from 30 mg/hour)): did not occur again | effect on the coronary vasospasm (Example 3 patient, fasudil hydrochloride in physiological saline into each of the blood vessels for 15 minutes at 1.5 mg/minute): resolved

Reference: patent US20080242660A1, “Therapeutic Agent for Vasospasm Accompanying Bypass Operation” (ASAHI KASEI PHARMA CORPORATION, priority 2004, published 2008)
